One compound from EP4692082A1, “CRYSTAL FORM OF 2,6-PIPERIDINEDIONE COMPOUND, AND PREPARATION METHOD THEREFOR AND USE THEREOF” (Zhangzhou Pien Tze Huang Pharmaceutical Co., Ltd., priority 2023, dated 2024) can be followed below.

The nature of data set [1]: Pharmacokinetic evaluation in beagle dogs. The following applies: Beagle dogs (fed). In kind it is in vivo. From the text:
Male beagle dogs were selected as the experimental animals in this study. The LC/MS/MS method was employed to quantitatively determine the plasma drug concentrations at different time points after intravenous injection or intragastric administration of the test compound, aiming to evaluate the pharmacokinetic characteristics of the compound of the present disclosure in beagle dogs.
Beagle dogs (male, 7 to 10 kg, Beijing Mars Biotechnology Co., Ltd.).
A solution of the test compound was slowly injected intravenously into beagle dogs (fed) via the peripheral vein (vehicle: 5% DMSO/10% Solutol/85% H2O), or administered intragastrically to beagle dogs (fed). For intravenous administration, 0.5 mL of blood was collected from the peripheral vein at 0.083, 0.25, 0.5, 1, 2, 4, 6, 8, and 24 h after administration, placed in EDTA-2K anticoagulant tubes, and centrifuged at 3200 g for 10 minutes at 2 to 8°C to separate the supernatant. For intragastric administration, 0.5 mL of blood was collected from the peripheral vein at 0.083, 0.25, 0.5, 1, 2, 4, 6, 8, and 24 h after administration, placed in EDTA-2K anticoagulant tubes, and centrifuged at 3200 g for 10 minutes at 2 to 8°C to separate the supernatant. Plasma drug concentrations were determined by the LC-MS/MS method, and relevant pharmacokinetic parameters were calculated using Phoenix WinNonlin 6.3 or 8.3.5 pharmacokinetic software with non-compartmental model linear-log trapezoidal method.

Data set [2] is described as follows: Pharmacokinetic evaluation in mice. In kind it is in vivo, C57BL/6 or C57 mice. From the text: C57BL/6 or C57 male mice were selected as the test animals for this study. The LC/MS/MS method was employed to quantitatively determine the plasma drug concentrations at various time points after intravenous injection or intragastric administration of the test compound, aiming to evaluate the pharmacokinetic characteristics of the compound of the present disclosure in mice.
C57BL/6 or C57 mice (male, 20 to 30g, 7 to 10 weeks old, Beijing Vital River).
A clear solution of the test compound was injected intravenously into the tail vein of C57BL/6 mice (fasted overnight) (vehicle: 10% DMSO/10% solutol/80% H2O), or administered intragastrically to C57 mice (fed). […] The mixture was thoroughly vortexed and mixed, and centrifuged at 6000 g for 3 minutes at 2 to 8°C. […] The mixture was thoroughly vortexed and mixed, and centrifuged at 6000 g for 3 minutes at 2 to 8°C. Plasma drug concentrations were determined by the LC-MS/MS method, and relevant pharmacokinetic parameters were calculated using Phoenix WinNonlin 8.2.0 pharmacokinetic software with non-compartmental model linear-log trapezoidal method. Table 20. Pharmacokinetic parameters of the compound of the present disclosure in mice

The target of data set [3] is T1, IRAK4 (Homo sapiens, UniProt Q9NWZ3).
T1 construct: expressed in transfected cells; host or cells: K562 IRAK4-HiBiT cells
T1 sequence (Q9NWZ3 1-460): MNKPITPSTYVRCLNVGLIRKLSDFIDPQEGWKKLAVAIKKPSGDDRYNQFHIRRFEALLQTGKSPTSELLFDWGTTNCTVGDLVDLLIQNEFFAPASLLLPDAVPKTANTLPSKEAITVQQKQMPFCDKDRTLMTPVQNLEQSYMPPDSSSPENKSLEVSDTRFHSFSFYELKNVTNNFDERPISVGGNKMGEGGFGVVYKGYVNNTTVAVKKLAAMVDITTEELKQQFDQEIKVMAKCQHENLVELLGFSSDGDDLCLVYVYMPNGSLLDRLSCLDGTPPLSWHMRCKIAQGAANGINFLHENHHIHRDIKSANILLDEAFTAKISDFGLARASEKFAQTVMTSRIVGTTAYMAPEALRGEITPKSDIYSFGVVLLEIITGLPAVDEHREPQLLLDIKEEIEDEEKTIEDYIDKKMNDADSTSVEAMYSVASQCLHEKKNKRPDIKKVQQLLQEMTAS
In words: Target protein degradation in K562 IRAK4-HiBiT cells (Nano-Glo HiBiT). The data set is classed as cell-based. The protocol: • Cells: K562 IRAK4-HiBiT cells • Culture medium: RPMI 1640 + 10% fetal bovine serum + 2 mM glutamine + 1 mM sodium pyruvate + penicillin/streptomycin • Positive control: 1000 nM; negative control: 0.1% DMSO Table 6. Reagents and consumables […]
• (1) The cell culture medium was discarded, and the cells were washed once with DPBS, digested with trypsin, and counted to prepare a cell suspension of […]. • (2) 25 µL/well of cell suspension was added to the assay plate containing the test compound using Multidrop Combi at medium speed. • (3) The assay plate containing cells was returned to an incubator with 5% CO2 at 37°C and incubated for 16 to 18 hours.
• (1) 25 µL/well of assay reagent (NanoGlo lysis buffer + substrate + LgBit protein) was added to the assay plate using Multidrop Combi at high speed, and the plate was shaken for 10 minutes. • (2) The plate was centrifuged at 2000 rpm for 1 minute to remove air bubbles. • (3) The plate was read on Envision using US Luminescence detection method.
The degradation rate (DR) of the test compound was calculated using the following formula: DR (%) = (RLU vehicle control - RLU compound)/(RLU vehicle control - RLU positive control)*100%, where the vehicle control served as the blank control. […]
Background: The HiBiT peptide binds its large partner to form an active luciferase.

The target in data set [4] is IKZF3 (Homo sapiens, UniProt Q96SW2+Q9UKT9). In words: In cell western analysis of IKZF3 protein expression level in MM.1S cells.
Procedure: (§1) • 1) MM.1S cells in the logarithmic growth phase were seeded into a 96-well plate at 1.2x10^5 cells per well and cultured overnight. • 2) On the second day, drug treatment was initiated with a starting concentration of 300 nM, followed by a 3-fold dilution in triplicate wells, with 10 concentration gradients (containing DMSO), and incubated for 24 hours in a culture incubator. • 3) The mixture was centrifuged, and the cell supernatant was carefully removed. […] The mixture was incubated at room temperature on a shaker for 5 min. • 12) The washing step was repeated 4 times. • 13) The secondary antibody diluent was prepared by adding Tween 20 to the Licor [sequence] blocking buffer at a final concentration of 0.2%. • 14) The fluorescent secondary antibody was diluted in the dark (1:800 dilution). To 400 µL of the secondary antibody diluent, 0.5 µLeach of IRDye 800CW and IRDye 680CW was added (the corresponding fluorescent secondary antibody for the primary antibody). • 15) 50 µL of the diluted fluorescent secondary antibody was added to each well, followed by incubation at room temperature on a shaker in the dark for 60 min. • 16) The secondary antibody was removed, and 200 µL of PBST was added along the well wall without touching the bottom cells. […]
(§2) GraphPad Prism 6 software was utilized to fit the curve with the inhibition rate data, and the DC50 value was calculated.
In data set [5] the target is IKZF1 (Homo sapiens, UniProt Q13422+Q96SW2). In words: In cell western analysis of IKZF1 protein expression level in MM.1S cells.
Procedure: as §1, §2
The mark [6] stands for this setting: Intragastric Administration, 5 mg/kg.
[7] abbreviates: Intragastric Administration, 15 mg/kg.
Where [8] appears, read: Intravenous Injection (0.5 mg/kg).
Setting [9] is: Intragastric administration (10 mg/kg) (fed).
Where [10] appears, read: MM1.S, read-out: Maximum Degradation Rate Dmax.

Where a name gives a salt, the structure may show the parent alone.

Chain of IKZF3 (Q9UKT9 whole entry): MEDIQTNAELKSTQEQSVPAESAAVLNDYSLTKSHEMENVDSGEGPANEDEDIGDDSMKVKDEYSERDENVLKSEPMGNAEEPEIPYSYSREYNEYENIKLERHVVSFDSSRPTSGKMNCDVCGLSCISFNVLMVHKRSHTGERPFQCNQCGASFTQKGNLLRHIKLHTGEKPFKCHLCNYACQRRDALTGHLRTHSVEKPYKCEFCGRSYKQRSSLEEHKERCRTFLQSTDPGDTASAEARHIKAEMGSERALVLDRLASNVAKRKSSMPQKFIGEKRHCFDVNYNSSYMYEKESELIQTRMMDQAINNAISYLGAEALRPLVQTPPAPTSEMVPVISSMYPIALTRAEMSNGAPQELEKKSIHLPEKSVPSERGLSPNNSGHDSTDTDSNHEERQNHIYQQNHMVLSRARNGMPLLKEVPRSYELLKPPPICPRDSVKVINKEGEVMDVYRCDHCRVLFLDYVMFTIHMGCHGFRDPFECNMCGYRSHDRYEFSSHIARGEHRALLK
Chain of IKZF3 (Q96SW2 whole entry): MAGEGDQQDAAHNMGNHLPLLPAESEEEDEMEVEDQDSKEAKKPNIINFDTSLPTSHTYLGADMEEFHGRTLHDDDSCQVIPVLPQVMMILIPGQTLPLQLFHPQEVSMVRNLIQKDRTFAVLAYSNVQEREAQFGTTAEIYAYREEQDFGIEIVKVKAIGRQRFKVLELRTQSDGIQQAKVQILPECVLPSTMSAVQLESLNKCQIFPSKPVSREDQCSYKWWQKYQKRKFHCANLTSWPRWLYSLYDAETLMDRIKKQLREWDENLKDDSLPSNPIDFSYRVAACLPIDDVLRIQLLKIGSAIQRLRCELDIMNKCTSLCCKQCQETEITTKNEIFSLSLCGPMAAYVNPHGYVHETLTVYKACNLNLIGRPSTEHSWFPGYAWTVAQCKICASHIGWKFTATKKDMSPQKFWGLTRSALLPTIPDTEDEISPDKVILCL
Chain of IKZF3 (Q16531 whole entry partner): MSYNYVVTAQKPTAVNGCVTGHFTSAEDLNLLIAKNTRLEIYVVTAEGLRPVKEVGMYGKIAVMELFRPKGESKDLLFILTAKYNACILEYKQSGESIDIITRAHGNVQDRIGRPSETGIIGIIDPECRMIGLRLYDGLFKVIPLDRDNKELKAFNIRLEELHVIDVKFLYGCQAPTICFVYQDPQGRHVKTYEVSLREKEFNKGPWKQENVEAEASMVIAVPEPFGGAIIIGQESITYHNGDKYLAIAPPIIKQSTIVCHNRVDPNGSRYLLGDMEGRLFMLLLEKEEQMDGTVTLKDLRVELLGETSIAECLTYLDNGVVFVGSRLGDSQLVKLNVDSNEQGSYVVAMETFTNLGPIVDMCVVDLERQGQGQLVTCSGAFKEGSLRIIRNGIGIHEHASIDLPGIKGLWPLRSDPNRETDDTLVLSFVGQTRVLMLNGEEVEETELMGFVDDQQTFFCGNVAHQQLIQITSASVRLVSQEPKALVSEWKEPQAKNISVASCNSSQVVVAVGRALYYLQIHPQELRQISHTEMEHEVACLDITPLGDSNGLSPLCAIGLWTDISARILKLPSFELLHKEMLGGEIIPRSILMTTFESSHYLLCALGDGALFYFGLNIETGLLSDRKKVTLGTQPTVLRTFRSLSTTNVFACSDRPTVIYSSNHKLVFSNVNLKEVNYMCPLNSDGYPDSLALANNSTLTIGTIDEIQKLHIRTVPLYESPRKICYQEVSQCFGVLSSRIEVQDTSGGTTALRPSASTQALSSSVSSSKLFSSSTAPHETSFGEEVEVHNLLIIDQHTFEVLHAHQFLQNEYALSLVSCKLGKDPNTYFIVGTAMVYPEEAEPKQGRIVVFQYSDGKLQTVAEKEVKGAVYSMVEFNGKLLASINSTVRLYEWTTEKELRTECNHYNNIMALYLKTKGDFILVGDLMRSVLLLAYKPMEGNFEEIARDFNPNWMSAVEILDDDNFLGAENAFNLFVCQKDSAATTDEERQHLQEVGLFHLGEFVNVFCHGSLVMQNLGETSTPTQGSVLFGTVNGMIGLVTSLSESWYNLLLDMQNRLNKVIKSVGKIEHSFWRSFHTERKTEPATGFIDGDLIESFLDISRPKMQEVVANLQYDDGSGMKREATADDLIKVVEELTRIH
Chain of IKZF1 (Q13422 whole entry): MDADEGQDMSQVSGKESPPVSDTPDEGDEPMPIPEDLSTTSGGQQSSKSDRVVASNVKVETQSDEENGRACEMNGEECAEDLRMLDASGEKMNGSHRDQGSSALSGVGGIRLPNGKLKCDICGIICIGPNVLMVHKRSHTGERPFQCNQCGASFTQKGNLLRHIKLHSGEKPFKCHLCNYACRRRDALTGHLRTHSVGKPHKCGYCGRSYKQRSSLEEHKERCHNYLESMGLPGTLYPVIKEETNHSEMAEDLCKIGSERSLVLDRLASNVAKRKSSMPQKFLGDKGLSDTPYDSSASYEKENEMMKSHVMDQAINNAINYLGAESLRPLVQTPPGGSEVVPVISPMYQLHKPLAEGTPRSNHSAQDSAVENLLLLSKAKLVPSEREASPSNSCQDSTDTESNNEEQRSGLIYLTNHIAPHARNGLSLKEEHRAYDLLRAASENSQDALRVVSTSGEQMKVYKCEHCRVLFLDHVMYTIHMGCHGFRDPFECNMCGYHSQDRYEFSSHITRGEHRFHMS
Chain of IKZF1 (Q96SW2 whole entry): as the sequence (Q96SW2 whole entry) above
Chain of IKZF1 (Q16531 whole entry partner): as the sequence (Q16531 whole entry partner) above

`O=C1CCC(c2noc3ccc4c(NC(=O)CN5CCN(C[C@H]6CC[C@H](n7cc(NC(=O)c8coc(-c9ccnc(NCC%10CC%10)c9)n8)c(C(F)F)n7)CC6)CC5)cccc4c23)C(=O)N1` (relative stereo) [Hydrochloride of Compound of Formula (I)]: the “Area Under the Drug-Time Curve (0-inf)” value was determined as 3.20 µM·h in data set [1] (setting [6]); 8.02 µM·h in data set [1] (setting [7]); 0.44 µM·h in data set [1] (setting [8]); 4.47 µM·h in data set [2] (setting [9]); 5.40 µM·h in data set [2] (Intravenous Injection (2 mg/kg) (fasted)). Further, the “Peak Concentration” value in data set [1] (setting [6]) is 0.41 µM; in data set [1] (setting [7]), 0.87 µM; in data set [2] (setting [9]), 0.54 µM. For the same compound, the “Time to Peak Concentration” value was determined as 4.00 h in data set [1] (setting [6]), 4.00 h in data set [1] (setting [7]) and 1.00 h in data set [2] (setting [9]). In addition, the “Apparent Distribution Volume” value in data set [1] (setting [8]) amounted to 5.83 L/kg. Besides, the Dmax in data set [3] (K562, read-out: Maximum Degradation Rate) amounted to 108%; in data set [4] (setting [10]), 73.5%; in data set [5] (setting [10]), 72.3%. For the same compound, the DC50 in data set [3] (K562 IRAK4-HiBiT cells, incubated 16 to 18 hours) was 4.87 nM; in data set [4] (IKZF3, MM.1S cells, 24 hours) it was 20.6 nM; in data set [5] (IKZF1, MM.1S cells, 24 hours), 23.4 nM.
